Results taken from US7902367B2, “Cyclic amino benzoic acid derivative” (Kyorin Pharmaceutical Co., Ltd., priority 2004, dated 2011).

molecular target: T1, human PPARα (Homo sapiens, UniProt Q07869); assay: Activation of transcription of human PPARα (Gal4-PPARα LBD luciferase reporter assay in CHO-K1 cells); format: cell-based; settings: CHO-K1 cells cotransfected with Gal4 DNA-binding domain/human PPARα ligand-binding domain receptor plasmid, firefly luciferase reporter and renilla internal standard; 20 hours at 37° C.
T1 construct: expressed in transfected cells; host or cells: CHO-K1 cells
T1 sequence (Q07869 239-466 limits assumed): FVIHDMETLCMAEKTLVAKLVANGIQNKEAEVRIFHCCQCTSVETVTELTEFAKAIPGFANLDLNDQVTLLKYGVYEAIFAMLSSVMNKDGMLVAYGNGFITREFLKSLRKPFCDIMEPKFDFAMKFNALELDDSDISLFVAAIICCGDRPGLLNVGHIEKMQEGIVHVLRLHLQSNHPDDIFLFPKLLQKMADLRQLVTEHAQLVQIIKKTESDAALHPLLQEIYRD
Description: Activation of Transcription of Human Peroxisome Proliferator-Activated Receptor (PPAR) α
CHO-K1 cells cultured in Ham's F12 medium supplemented with 10% fetal calf serum were cotransfected with the following plasmids: A receptor plasmid encoding a fusion protein consisting of the DNA-binding domain of yeast transcription factor Gal4 fused to the ligand-binding domain of human PPARα (Biochemistry, 1993, 32, 5598), a reporter plasmid (STRATAGENE, firefly luciferase reporter plasmid), and a renilla luciferase plasmid for internal standard (Promega). The cotransfection was performed over a 2-hour period by using Lipofectamine (INVITROGEN) in the absence of serum. Subsequently, a test compound was added in Ham's F12 medium supplemented with 10% defatted bovine serum. The cells were then incubated at 37° C. for 20 hours. The activity of each luciferase was then determined and corrected for internal standard.

Going from `Cc1nc(-c2ccc(Cl)cc2)sc1C(=O)NC1CCCN(c2cccc(C(=O)O)c2)C1` (stereo not shown) [Example 32] to `Cc1nc(-c2ccc(Cl)cc2)sc1C(=O)NCC1CCCN(c2cccc(C(=O)O)c2)C1` (stereo not shown) [Example 19], the EC50 rises from 20 nM to 970 nM (48-fold). The first is the more potent here.

First: Cc1nc(-c2ccc(Cl)cc2)sc1COCC1CCCN(c2cccc(C(=O)O)c2)C1 (stereo not shown) [Example 24]
Second: Cc1nc(-c2ccc(Cl)cc2)sc1COC1CCCN(c2cccc(C(=O)O)c2)C1 (stereo not shown) [Example 25]
The EC50 of the first is 2.8-fold higher: 1540 nM for the first, 560 nM for the second. The second is the more potent here.

Going from `Cc1nc(-c2ccc(Cl)cc2)sc1C(=O)NCC1CCCN(c2ccccc2C(=O)O)C1` (stereo not shown) [Example 18, 2-[3-[[2-(4-Chlorophenyl)-4-methylthiazol-5-yl]carbonylaminomethyl]piperidin-1-yl]benzoic acid] to `Cc1nc(-c2ccc(Cl)cc2)sc1CNC(=O)C1CCCN(c2ccccc2C(=O)O)C1` (stereo not shown) [Example 20], the EC50 rises from 65 nM to 1360 nM (21-fold).

`Cc1nc(-c2ccc(Cl)cc2)sc1COCC1CCCN(c2ccccc2C(=O)O)C1` (stereo not shown) [Example 22] gave an EC50 of 160 nM.
